Results as given in patent US20150351394A1, “BACTERICIDAL COMPOSITION CONTAINING FLUAZINAM” (Shenzhen Noposion Agrochemicals Co., Ltd., priority 2014, published 2015).

Assays:
[1] = tested on: pepper phytophthora capsici; experiment: Indoor toxicity test on potted pepper seedlings inoculated with pepper phytophthora capsici (NY/T1156.11-2008); assay type: in vivo; details: single active compound, survey 8 days after inoculation
Procedure: The pepper phytophthora capsici is acted as test object.
Test methods: referring to the “Republic of China agricultural industry standard NY/T1156.11-2008”, selecting growing consensus potted pepper seedlings, selecting five pots per test object with respective number for use, spraying five milliliters for each pot by a Potter spray tower in a pressure of 50 PSI. The test results are shown in Tables 1 and 2 and each test pesticide is provided with five concentration gradients. After 24 hours, five millimeters pepper phytophthora capsici mycelium blocks are inoculated into the objects. Pepper seedlings with an equal amount of water spraying are selected as the blank control. After inoculation, pepper seedlings are shifted into light moisturizer cabinets for culture. After 8 days, in accordance with grading standards of incidence of pepper phytophthora blights, the disease indexes are surveyed and the control effects are calculated.
Capsici disease classification criteria:
0 level: no lesion on the leaves;
1 level: lesion area of the total leaf area is 5% or less;
3 level: lesion area of the total leaf area is from 6% to 10%;
5 level: lesion area of the total leaf area is from 11% to 25%;
7 level: lesion area of the total leaf area is from 25% to 50%;
9 level: lesion area of the total leaf area is 50% or more.
Disease index=[Σ(leaf quantity in each level×respective level number)×100]/(Total quantity of tested leaves×9).
Control effect (%)=[(blank disease index−treated disease index)]×100]/blank disease index.
Expected effect of a mixture of the active ingredients (i.e., control effect in theory, %) is determined by using Colby's formula and is compared with observed effect:
Colby formula: E=X+Y−X*Y/100
E: expected effect of the composition provided that active ingredient A thereof is in a concentration of a value, and active ingredient B is in a concentration of b value.
X: expected effect provided that usage dose of the active ingredient A is a value.
Y: expected effect provided that usage dose of the active ingredient B is b value.
It is testified that the mixture has a synergistic effect when the actual control effect observed exceeds the expected control effect.

[2] = tested on: pepper phytophthora blight; experiment: Field efficacy experiment against the pepper phytophthora blight (Haikou, Hainan); assay type: in vivo, phytophthora capsici; details: two foliar sprays 7 days apart, field peppers
Procedure: Test site is Haikou in Hainan. […] Four plots are treated per pesticide and replicates. Each plot has surface area of 20 square meters. The pesticides are applied in the early occurrence of disease and are uniformly sprayed onto the leaves until dripping for the first time. Clean water is used as the blank control. Seven days later, the pesticides are applied for the second time. Disease incidence of the pepper phytophthora blights to the peppers prior to the first pesticide application and that of after 15 days from the second pesticide application are surveyed. Each plot uses a five-point sampling means, surveying two per point, and recording the number of diseased plants, dead plants and apparent withered plants. Disease index and control effect are calculated for each treatment.
Classification method (according to symptom types):
0 level: health, no disease;
1 level: lesions happen only to overground leaves and fruitst;
3 level: brown rot spots happen to overground stems and branches;
5 level: brown rot spots happen to the stem base;
7 level: brown rot spots happen to overground stems, branches and stem base, and some dead branches;
9 level: entire plant dead.
Efficacy calculation method:
Disease index=[Σ(plant quantity in each level×respective level number)×100]/(Total quantity of tested plants×9). […]

Row | SMILES | Actual effect (control effect) ([1]; 1 ppm in spraying droplet) | Actual effect (control effect) ([1]; 10 ppm in spraying droplet) | Actual effect (control effect) ([1]; 30 ppm in spraying droplet) | Actual effect (control effect) ([1]; 50 ppm in spraying droplet) | Actual effect (control effect) ([1]; 100 ppm in spraying droplet) | Control effects ([2]; 20 g a.i./ha) | Actual effect (control effect) ([1]; 20 ppm in spraying droplet) | Control effects ([2]; 250 g a.i./ha)
1 | C=CCc1ccc(O)c(OC)c1 [Eugenol, 4-allyl-2-methoxy-phenol] | 6.2% | 17.6% | 46.3% | 63.8% | 79.5% | 71.6% |  | 
2 | O=[N+]([O-])c1cc(C(F)(F)F)c(Cl)c([N+](=O)[O-])c1Nc1ncc(C(F)(F)F)cc1Cl [Fluazinam, 3-chloro-N-(3-chloro-5-trifluoromethyl-2-pyridyl)-α,α,α-trifluor-2,6-dinitro-p-toluidine] | 11.4% | 31.2% |  | 71.4% | 87.1% |  | 52.9% | 78.7%
